Measured values as given in patent US10278943B2, “Method of treating hyperglycemia” (Center Laboratories, Inc., priority 2016, dated 2019).

Key:
Format in all cases: in vivo
[1] = tested on: STZ-induced diabetic mice; test: Blood glucose level in STZ-induced diabetic mice (Example 1.1)
Experimental: Wide-type male C57BL/6 mice were rendered diabetic by multiple intraperitoneal injection of streptozotocin (STZ, 40 mg/Kg/day for 5 days, day 1 to day 5). […] For animals treated with insulin, insulin was administered subcutaneously 90 minutes before blood glucose measurement. Non-fasting blood glucose level was measured on days 6, 15, and 25, whereas fasting blood glucose (i.e., blood glucose level after fasting for 12 hrs fasting) was measured on days 40 and 50.
Results are illustrated in FIG. 1.

NIDDM mice [2] = test: Fasting blood glucose level in NIDDM (db/db) mice, R-VPM and/or metformin, 42 days (Example 2.1); details: for blood glucose level, % of day 0: 6-hr fasting; for effect on blood glucose level on its own: low dose, 15 mg/Kg, HCl; for reduction of blood glucose level compared with the vehicle group: metformin 300 mg/Kg
Experimental: (§1) NIDDM mice and db/m+ mice (the sham control) were acclimated at least one week and then grouped for treatment when the average blood glucose value was ≥350 mg/dl after 6-hr fasting. […] Blood glucose and glycated haemoglobin (HbA1c) levels were measured on designated days after 6-hr fasting. Body weight of each test animal was also measured during the study period.
(§2) For comparison, a group of 8 db/m+ (C57BLKS/J Lar-m+/+Lepr^db) mice were used as the sham control. Levels of blood glucose and HbA1c were respectively measured on day 0 (before treatment), and on day 15, 29 and 43 in the 6-hr fasting animals.
In Table 1, blood glucose level in each treatment group was expressed as % of the control, which was the blood glucose level on day 0 and was taken to be 100%.

NIDDM mice [3] = test: Glycated haemoglobin (HbA1c) level in NIDDM (db/db) mice, R-VPM and/or metformin (Example 2.2); details: for C = B − A, HbA1c level minus vehicle / HbA1c level relative to day 0 = 100: metformin 300 mg/Kg once daily
Experimental: as §1, §2
Another common indicator, glycated haemolglobin (HbA1c), which reflects average blood glucose levels over a duration was also measured in the present study. HbA1c develops when haemolglobin, a protein within red blood cells that carries oxygen throughout the body joins with glucose in the blood and becomes “glycated.” Since red blood cells in a human body survive for about 8-12 weeks before renewal, thus, the level of HbA1c gives an overall picture of average blood sugar levels over such period.

NIDDM mice [4] = test: Fasting blood glucose level in NIDDM (db/db) mice, 44 days treatment (Example 1.2)
Experimental: as §1
For comparison, a group of 5 db/m+ (C57BLKS/J Lar-m+/+Lepr^db) mice were used as the sham control. Blood glucose levels were measured on day 0 (before treatment), and on days 15, 30, and 45 in the 6-hr fasting animals. Results are illustrated in FIG. 2.

[5] = metformin 300 mg/Kg once daily, day 15
[6] = metformin 300 mg/Kg once daily, day 29
[7] = metformin 300 mg/Kg once daily, day 43

## COc1ccc(CCN(C)CCC[C@](C#N)(c2ccc(OC)c(OC)c2)C(C)C)cc1OC.Cl [R-VMP, (R)-(+)-verapamil HCl]
[1]; oral, bid, fasting 12 hrs, days 40 and 50
  potency in reducing the level of fasting blood glucose, compared between enantiomers (FIG. 1): relatively more potent than (S)-(−)-verapamil HCl
[1]; taken together of the findings in the working examples
  dose at which the compound alone is effective in reducing blood glucose level: ≥ 25 mg/Kg, bid
NIDDM mice [2]; R-VMP 15 mg/Kg, bid, day 15
  E = D − A, blood glucose level minus vehicle: 2.3%
  blood glucose level, % of day 0: 99.4%
NIDDM mice [2]; R-VMP 15 mg/Kg, bid, day 29
  E = D − A, blood glucose level minus vehicle: 5.2%
  blood glucose level, % of day 0: 121.6%
NIDDM mice [2]; R-VMP 15 mg/Kg, bid, day 43
  E = D − A, blood glucose level minus vehicle: −6.6%
  blood glucose level, % of day 0: 115%
NIDDM mice [2]; R-VMP 30 mg/Kg, bid, day 15
  E = D − A, blood glucose level minus vehicle: −9.4%
  blood glucose level, % of day 0: 87.7%
NIDDM mice [2]; R-VMP 30 mg/Kg, bid, day 29
  E = D − A, blood glucose level minus vehicle: −12.9%
  blood glucose level, % of day 0: 103.5%
NIDDM mice [2]; R-VMP 30 mg/Kg, bid, day 43
  E = D − A, blood glucose level minus vehicle: −21.9%
  blood glucose level, % of day 0: 99.7%
NIDDM mice [2]; R-VMP 50 mg/Kg, bid, day 15
  E = D − A, blood glucose level minus vehicle: −14.8%
  blood glucose level, % of day 0: 82.3%
NIDDM mice [2]; R-VMP 50 mg/Kg, bid, day 29
  E = D − A, blood glucose level minus vehicle: −22%
  blood glucose level, % of day 0: 94.4%
NIDDM mice [2]; R-VMP 50 mg/Kg, bid, day 43
  E = D − A, blood glucose level minus vehicle: −22.9%
  blood glucose level, % of day 0: 98.7%
NIDDM mice [2]; higher dose, 30 or 50 mg/Kg, bid
  effect on blood glucose levels (FIG. 3): could reduce the blood glucose levels
NIDDM mice [2]; bid
  effect on blood glucose level on its own: possessed no treatment effect
NIDDM mice [2]; bid, listed as R-VPM
  effect on blood glucose level on its own: ineffective
NIDDM mice [3]; 15 mg/Kg, bid
  effect on HbA1c level (FIG. 4): no effect
NIDDM mice [3]; 30 mg/Kg, bid
  effect on HbA1c level (FIG. 4): mild reduction
NIDDM mice [3]; R-VMP 15 mg/Kg, bid, day 15
  E = D − A, HbA1c level minus vehicle: −2.5
NIDDM mice [3]; R-VMP 15 mg/Kg, bid, day 29
  E = D − A, HbA1c level minus vehicle: 0.9
NIDDM mice [3]; R-VMP 15 mg/Kg, bid, day 43
  E = D − A, HbA1c level minus vehicle: −3.8
NIDDM mice [3]; R-VMP 30 mg/Kg, bid, day 15
  E = D − A, HbA1c level minus vehicle: −1
NIDDM mice [3]; R-VMP 30 mg/Kg, bid, day 29
  E = D − A, HbA1c level minus vehicle: 0.1
NIDDM mice [3]; R-VMP 30 mg/Kg, bid, day 43
  E = D − A, HbA1c level minus vehicle: −12.8
NIDDM mice [3]; R-VMP 50 mg/Kg, bid, day 15
  E = D − A, HbA1c level minus vehicle: −4.5
NIDDM mice [3]; R-VMP 50 mg/Kg, bid, day 29
  E = D − A, HbA1c level minus vehicle: −3.7
NIDDM mice [3]; R-VMP 50 mg/Kg, bid, day 43
  E = D − A, HbA1c level minus vehicle: −10.5
NIDDM mice [4]; 50 and 75 mg/Kg, bid
  effect on fasting blood glucose level compared with control vehicle NIDDM mice (FIG. 2): reduced the fasting blood glucose level

## insulin [reference compound]
[1]; insulin subcutaneously 90 minutes before measurement
  effect on level of non-fasting or fasting blood glucose (FIG. 1): capable of reducing

## CN(C)C(=N)N=C(N)N [metformin, reference compound]
NIDDM mice [2]; [5]
  C = B − A, blood glucose level minus vehicle: −31.8%
  blood glucose level, % of day 0: 65.3%
NIDDM mice [2]; [6]
  C = B − A, blood glucose level minus vehicle: −12.8%
  blood glucose level, % of day 0: 103.6%
NIDDM mice [2]; [7]
  C = B − A, blood glucose level minus vehicle: −12.8%
  blood glucose level, % of day 0: 108.8%
NIDDM mice [2]; day 15
  reduction of blood glucose level compared with the vehicle group: about 31.8%
NIDDM mice [2]; day 29
  reduction of blood glucose level compared with the vehicle group: ~12.8%
NIDDM mice [2]; day 43
  reduction of blood glucose level compared with the vehicle group: ~12.8%
NIDDM mice [2]; metformin, days 15, 29 and 43
  effect on blood glucose levels (FIG. 3): could reduce the blood glucose levels
NIDDM mice [3]; metformin
  effect on HbA1c level (FIG. 4): significantly reduce HbA1c level
NIDDM mice [3]; day 15
  C = B − A, HbA1c level minus vehicle: −5.5
  HbA1c level relative to day 0 = 100: 114.7
NIDDM mice [3]; day 29
  C = B − A, HbA1c level minus vehicle: −2.5
  HbA1c level relative to day 0 = 100: 124.9
NIDDM mice [3]; day 43
  C = B − A, HbA1c level minus vehicle: −3
  HbA1c level relative to day 0 = 100: 133
NIDDM mice [4]; metformin 300 mg/Kg
  effect on level of fasting blood glucose (FIG. 2): reduced the level of fasting blood glucose

## COc1ccc(CCN(C)CCCC(C#N)(c2ccc(OC)c(OC)c2)C(C)C)cc1OC (racemic) [VPM, 2-(3,4-dimethoxyphenyl)-5-[2-(3,4-dimethoxyphenyl)ethylmethylamino]-2-propan-2-ylpentanenitrile, reference compound]
[1]; 25 or 35 mg/Kg, bid, oral
  effect on fasting or non-fasting blood glucose level (FIG. 1): had no effects
NIDDM mice [4]; 30 mg/Kg, bid
  effect on reduction of fasting blood glucose level (FIG. 2): neither racemic verapamil HCl (30 mg/Kg, bid) nor (S)-(−)-verapamil HCl, possessed any effect

## COc1ccc(CCN(C)CCC[C@@](C#N)(c2ccc(OC)c(OC)c2)C(C)C)cc1OC.Cl [S-VPM, (S)-(−)-verapamil HCl]
NIDDM mice [4]; dose not printed in the sentence (bid)
  effect on reduction of fasting blood glucose level (FIG. 2): neither racemic verapamil HCl (30 mg/Kg, bid) nor (S)-(−)-verapamil HCl, possessed any effect
